From US10266497B2 (ABIDE THERAPEUTICS, INC., priority 2017, dated 2019) come the findings set out here.

In experiment [1] the target is T1, FAAH (Homo sapiens, UniProt O00519).
T1 sequence (O00519 1-579): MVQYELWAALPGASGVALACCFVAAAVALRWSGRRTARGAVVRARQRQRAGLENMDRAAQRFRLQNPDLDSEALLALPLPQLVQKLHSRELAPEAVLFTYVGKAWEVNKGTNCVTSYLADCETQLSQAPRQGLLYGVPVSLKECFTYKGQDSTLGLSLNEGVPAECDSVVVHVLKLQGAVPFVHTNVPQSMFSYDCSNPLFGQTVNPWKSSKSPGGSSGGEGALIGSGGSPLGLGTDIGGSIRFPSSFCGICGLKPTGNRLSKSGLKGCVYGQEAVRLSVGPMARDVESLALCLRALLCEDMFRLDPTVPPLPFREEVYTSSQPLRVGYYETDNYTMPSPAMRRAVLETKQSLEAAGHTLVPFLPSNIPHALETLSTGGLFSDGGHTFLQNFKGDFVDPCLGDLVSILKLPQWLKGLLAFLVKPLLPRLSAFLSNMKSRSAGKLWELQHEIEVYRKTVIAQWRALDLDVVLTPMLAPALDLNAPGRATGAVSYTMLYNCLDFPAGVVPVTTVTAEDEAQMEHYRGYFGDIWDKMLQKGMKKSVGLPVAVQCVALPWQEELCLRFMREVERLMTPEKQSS
In words: In vitro competitive activity-based protein profiling, FAAH, human. Conditions: for inhibition at 1 µM: read-out: FAAH % inh. 1 μM (human).

The target of experiment [2] is T2, FAAH (Mus musculus, UniProt O08914).
T2 sequence (O08914 1-579): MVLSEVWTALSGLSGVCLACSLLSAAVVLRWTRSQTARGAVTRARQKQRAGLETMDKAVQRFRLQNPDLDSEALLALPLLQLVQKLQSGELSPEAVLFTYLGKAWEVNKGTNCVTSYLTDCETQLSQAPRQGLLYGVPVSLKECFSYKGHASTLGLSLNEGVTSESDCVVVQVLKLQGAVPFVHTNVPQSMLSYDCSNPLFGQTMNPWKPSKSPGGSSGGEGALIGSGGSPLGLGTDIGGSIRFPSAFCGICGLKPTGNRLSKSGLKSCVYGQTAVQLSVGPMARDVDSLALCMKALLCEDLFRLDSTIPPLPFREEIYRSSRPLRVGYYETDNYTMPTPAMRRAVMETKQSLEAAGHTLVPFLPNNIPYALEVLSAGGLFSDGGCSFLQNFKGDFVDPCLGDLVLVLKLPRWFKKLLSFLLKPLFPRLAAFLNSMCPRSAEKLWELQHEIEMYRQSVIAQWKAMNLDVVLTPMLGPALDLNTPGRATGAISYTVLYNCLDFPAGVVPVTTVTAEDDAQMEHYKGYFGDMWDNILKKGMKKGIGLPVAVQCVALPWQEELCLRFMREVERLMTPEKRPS
In words: Mouse brain proteomes from inhibitor treated mice (oral gavage, sacrificed 4 h after administration), FAAH. Details: mouse brain membrane fraction for mouse assays; from tissue; host or cells: mouse brain (membrane fraction in vitro; brain proteomes of treated C57Bl/6J mice in vivo). Format: in vivo. Conditions: 5 mg/kg oral gavage, C57Bl/6J mice, brain proteome 4 h after administration, read-out: FAAH % inh. 5 mg/kg (mouse).

Experiment [3] addresses T2, FAAH. In words: In vitro competitive activity-based protein profiling, FAAH, mouse. Conditions: read-out: FAAH % inh. 1 μM (mouse).
Experiment [4] deals with T3, MAGL (Mus musculus, UniProt O35678).
T3 sequence (O35678 1-303): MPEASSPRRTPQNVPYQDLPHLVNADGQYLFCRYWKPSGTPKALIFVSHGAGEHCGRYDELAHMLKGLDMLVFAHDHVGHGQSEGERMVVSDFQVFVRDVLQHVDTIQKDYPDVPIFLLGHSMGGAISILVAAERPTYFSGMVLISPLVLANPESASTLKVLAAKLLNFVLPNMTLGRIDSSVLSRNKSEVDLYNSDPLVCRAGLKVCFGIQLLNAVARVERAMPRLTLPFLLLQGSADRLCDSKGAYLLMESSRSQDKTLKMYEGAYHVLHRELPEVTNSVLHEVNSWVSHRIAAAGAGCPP
In words: Mouse brain proteomes from inhibitor treated mice (oral gavage, sacrificed 4 h after administration). The experiment is classed as in vivo. More on the design: mouse brain membrane fraction for mouse assays; from tissue; host or cells: mouse brain (membrane fraction in vitro; brain proteomes of treated C57Bl/6J mice in vivo). To be noted: 5 mg/kg oral gavage, C57Bl/6J mice, brain proteome 4 h after administration, read-out: MAGL % inh. 5 mg/kg (mouse).

In experiment [5] the target is T3, MAGL. In words: In vitro competitive activity-based protein profiling, MAGL, mouse. Conditions: read-out: MAGL % inh. 1 μM (mouse).
Experiment [6] addresses T4, MAGL (Homo sapiens, UniProt Q99685).
T4 sequence (Q99685 1-303): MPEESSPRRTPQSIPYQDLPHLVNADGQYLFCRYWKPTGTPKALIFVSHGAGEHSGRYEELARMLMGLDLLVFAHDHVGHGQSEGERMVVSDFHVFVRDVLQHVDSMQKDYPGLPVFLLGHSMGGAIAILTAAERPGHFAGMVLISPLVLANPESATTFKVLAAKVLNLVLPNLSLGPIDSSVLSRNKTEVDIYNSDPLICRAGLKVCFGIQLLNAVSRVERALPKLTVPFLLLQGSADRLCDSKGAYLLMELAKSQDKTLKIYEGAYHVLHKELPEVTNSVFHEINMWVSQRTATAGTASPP
In words: In vitro competitive activity-based protein profiling, MAGL, human. To be noted: read-out: MAGL % inh. 1 μM (human).

Molecules are shown by their SMILES.

`O=C(O)c1ccn(C(=O)N2CCN(Cc3cccc(C(F)(F)F)c3N3CCOCC3)CC2)n1` [Example 453, 1-(4-(2-morpholino-3-(trifluoromethyl)benzyl)piperazine-1-carbonyl)-1H-pyrazole-3-carboxylic acid] had an IC50 in experiment [1] of 1 to 10 µM. In addition, the inhibition at 5 mg/kg in experiment [2] and in experiment [4] was 0 to 25% throughout. For the same compound, the results for the inhibition at 1 µM in experiment [3] and in experiment [5] were 0 to 25% and more than 75%, respectively.

For `CN(Cc1ccc(C(F)(F)F)cc1N1CCCC1)C1(C)CCN(C(=O)n2ccc(C(=O)O)n2)CC1` [Example 456, 1-(4-methyl-4-(methyl(2-(pyrrolidin-1-yl)-4-(trifluoromethyl)benzyl)amino)piper-idine-1-carbonyl)-1H-pyrazole-3-carboxylic acid], the inhibition at 1 µM in experiment [1] was 0 to 25%; in experiment [3] it was 0 to 25%; in experiment [6], more than 75%; in experiment [5], more than 75%. The inhibition at 5 mg/kg in experiment [2] and in experiment [4] was 0 to 25% each time.

`O=C(O)c1ccn(C(=O)N2CCN(Cc3ccc(C(F)(F)F)c(N4CC5COCC5C4)c3)CC2)n1` (centres unmarked) [Example 454, 1-(4-(3-(tetrahydro-1H-furo[3,4-c]pyrrol-5(3H)-yl)-4-(trifluoromethyl)benzyl)piperazine-1-carbonyl)-1H-pyrazole-3-carboxylic acid]: the inhibition at 1 µM is 0 to 25% in experiment [1], 0 to 25% in experiment [3], more than 75% in experiment [6] and more than 75% in experiment [5]. Besides, the inhibition at 5 mg/kg in experiment [2] and in experiment [4] was 0 to 25% throughout.
